Data reported in US8455448B2, “Myostatin isoform” (Myostin Therapeutics Pty Ltd, priority 2004, dated 2013).
Entries after “also recorded” stand apart in the source; their conditions may differ.

Columns and labels:
[1] = system: creatine kinase (CK); assay: Creatine kinase (CK-NAC) assay of blood samples of AH130 tumour rats; type: in vivo, rat; conditions: 1 μg/g bodymass s.c. twice daily for 6 d, day 6, FIG. 19
Experimental: The ascites hepatoma 130 (AH130) was obtained as a gift from Dr Vicki Baracos (University of Alberta, Edmonton, Alberta, Canada) and stored in cryovials in liquid nitrogen in a solution of 50% DMSO and 10% BSA. An aliquot was retrieved and thawed and 1 ml was injected i.p. into each of three donor rats and allowed to grow for seven days. The rats were killed by CO2 asphyxiation followed by cervical dislocation. The ascites was harvested and 100 μl was injected i.p. into each of 14 recipient male rats (280±6 g). An equal volume of saline was injected i.p. into seven control rats. Of the 14 rats inoculated with the AH130 tumour, seven were injected s.c. twice daily with roMSV47 at a dose of 1 μg/g body mass diluted in sterile saline to a volume of 1 ml. […] The volume of ascites in the peritoneal cavity was removed with a syringe and the volume recorded. Six muscles in the right hind limb (biceps femoris, gastrocnemius, soleus, plantaris, tibialis anterior and quadriceps femoris) were excised and their mass recorded.
CK-NAC was assayed in a commercial kit (Randox laboratories Ltd, UK). Reaction volumes were scaled down proportionately so that the assays could be performed in 96-well microtitre plates with samples assayed in triplicate (CK-NAC) and read as a change in U/L per min as per manufacturer's instructions.

[2] = system: p21; assay: p21 protein in proliferating C2C12 myoblasts (Western blot); type: cell-based, murine; conditions: 0.1, 1, 10 μg/ml, 48 h, FIG. 6
Experimental: Thus, a decrease in p21 protein expression may indicate an increased cell proliferation rate. PCNA is a positive marker of cell proliferation. It is a subunit of DNA polymerase-delta during DNA replication in the cell cycle. Higher level of PCNA protein expression is associated with higher number of cells entering the DNA replication phase of the cell cycle.
C2C12 myoblasts were seeded in 10 cm diameter tissue culture plates (Nunc, Roskilde, Denmark) at a cell density of 3000 cells per cm^2 in 10 ml of Dulbecco's modified Eagle's medium (DMEM, Invitrogen, California) supplemented with foetal bovine serum (FBS, 10% v/v, Invitrogen), penicillin (1×105 IU/l, Sigma, St Louis, Mo., USA) and streptomycin (100 mg/l, Sigma) buffered with NaHCO3 containing phenol red (7.22 nmol/l) as a pH indicator, and incubated overnight at 37° C. with 5% CO2. The medium was replaced with the test medium: DMEM with 10% FBS supplemented with, 0.1, 1 or 10 μg/ml oMSV65 (n=3). The plates were then incubated at 37° C. with 5% CO2 for 48 hours. Cells were removed from the plate by trypsin treatment, washed with phosphate buffered saline (PBS, Oxoid, UK) and resuspended in 100 μl of lysis buffer (10 mM Hepes pH 7.9, 1.5 mM MgCl2, 10 mM KCl, 0.5% NP40, one Complete protease inhibitor tablet [Roche Diagnostics, USA] per 50 ml buffer). […] Band intensities were measured with a GS800 densitometer (BioRad, USA).

Molecule	concentrations of creatine kinase (CK) [1]	p21 protein levels in proliferating C2C12 myoblasts [2]
roMSV47: 47 amino acid C-terminal mature ovine MSV fragment (SEQ ID NO: 50), recombinant from E. coli (IIFLEVYIQFCSILGEAVFKRQSKSIHFCQNFKIIACLCNTAAFRMK; Ovis aries)	partially restores concentrations of CK; also recorded: not as markedly reduced	
roMSV65: 65 amino acid C-terminal peptide of ovine MSV (SEQ ID NO: 49) expressed as recombinant protein in E. coli (protein, Ovis aries) VHFYTPPYGQWIFHKERKIIFLEVYIQFCSILGEAVFKRQSKSIHFCQNFKIIACLCNTAAFRMK		dose-dependently decreases p21 protein levels
